Earlier results as cited in patent publication US12465059B2, “Concentrated formic acid composition and its uses thereof” (priority 2018, dated 2025).

Experiments:
[1] = versus Acetic Acid, the second best strongest straight chain Organic Acid
Rat = settings: oral

| SMILES | times stronger than Acetic Acid (acid strength) [1] [times] | LD 50 (Rat) [mg/kg] |
| --- | --- | --- |
| O=CO [Methanoic acid] | 10 | – |
| [Cl-].[Na+] [Sodium Chloride] | – | 3000 |
